According to patent publication US20230312528A1, “2-OXO-IMIDAZOLIDINE-4-CARBOXAMIDES AS NAV1.8 INHIBITORS” (Merck Sharp & Dohme LLC, priority 2020, published 2023):
Several values for one entry are separate records, joined by “and”; a condition that tells them apart may be missing. Equal entries are not always repeated.

What follows are compounds tested against human NaV1.8 (Homo sapiens (Human), UniProt Q9Y5Y9) (assay: Nav1.8 Qube automated patch-clamp assay). Details: human NaV1.8 stably expressed in HEK 293 cells; automated 384-well patch-clamp; resting or inactivated state not specified.
Sequence of human NaV1.8 (Q9Y5Y9 whole entry): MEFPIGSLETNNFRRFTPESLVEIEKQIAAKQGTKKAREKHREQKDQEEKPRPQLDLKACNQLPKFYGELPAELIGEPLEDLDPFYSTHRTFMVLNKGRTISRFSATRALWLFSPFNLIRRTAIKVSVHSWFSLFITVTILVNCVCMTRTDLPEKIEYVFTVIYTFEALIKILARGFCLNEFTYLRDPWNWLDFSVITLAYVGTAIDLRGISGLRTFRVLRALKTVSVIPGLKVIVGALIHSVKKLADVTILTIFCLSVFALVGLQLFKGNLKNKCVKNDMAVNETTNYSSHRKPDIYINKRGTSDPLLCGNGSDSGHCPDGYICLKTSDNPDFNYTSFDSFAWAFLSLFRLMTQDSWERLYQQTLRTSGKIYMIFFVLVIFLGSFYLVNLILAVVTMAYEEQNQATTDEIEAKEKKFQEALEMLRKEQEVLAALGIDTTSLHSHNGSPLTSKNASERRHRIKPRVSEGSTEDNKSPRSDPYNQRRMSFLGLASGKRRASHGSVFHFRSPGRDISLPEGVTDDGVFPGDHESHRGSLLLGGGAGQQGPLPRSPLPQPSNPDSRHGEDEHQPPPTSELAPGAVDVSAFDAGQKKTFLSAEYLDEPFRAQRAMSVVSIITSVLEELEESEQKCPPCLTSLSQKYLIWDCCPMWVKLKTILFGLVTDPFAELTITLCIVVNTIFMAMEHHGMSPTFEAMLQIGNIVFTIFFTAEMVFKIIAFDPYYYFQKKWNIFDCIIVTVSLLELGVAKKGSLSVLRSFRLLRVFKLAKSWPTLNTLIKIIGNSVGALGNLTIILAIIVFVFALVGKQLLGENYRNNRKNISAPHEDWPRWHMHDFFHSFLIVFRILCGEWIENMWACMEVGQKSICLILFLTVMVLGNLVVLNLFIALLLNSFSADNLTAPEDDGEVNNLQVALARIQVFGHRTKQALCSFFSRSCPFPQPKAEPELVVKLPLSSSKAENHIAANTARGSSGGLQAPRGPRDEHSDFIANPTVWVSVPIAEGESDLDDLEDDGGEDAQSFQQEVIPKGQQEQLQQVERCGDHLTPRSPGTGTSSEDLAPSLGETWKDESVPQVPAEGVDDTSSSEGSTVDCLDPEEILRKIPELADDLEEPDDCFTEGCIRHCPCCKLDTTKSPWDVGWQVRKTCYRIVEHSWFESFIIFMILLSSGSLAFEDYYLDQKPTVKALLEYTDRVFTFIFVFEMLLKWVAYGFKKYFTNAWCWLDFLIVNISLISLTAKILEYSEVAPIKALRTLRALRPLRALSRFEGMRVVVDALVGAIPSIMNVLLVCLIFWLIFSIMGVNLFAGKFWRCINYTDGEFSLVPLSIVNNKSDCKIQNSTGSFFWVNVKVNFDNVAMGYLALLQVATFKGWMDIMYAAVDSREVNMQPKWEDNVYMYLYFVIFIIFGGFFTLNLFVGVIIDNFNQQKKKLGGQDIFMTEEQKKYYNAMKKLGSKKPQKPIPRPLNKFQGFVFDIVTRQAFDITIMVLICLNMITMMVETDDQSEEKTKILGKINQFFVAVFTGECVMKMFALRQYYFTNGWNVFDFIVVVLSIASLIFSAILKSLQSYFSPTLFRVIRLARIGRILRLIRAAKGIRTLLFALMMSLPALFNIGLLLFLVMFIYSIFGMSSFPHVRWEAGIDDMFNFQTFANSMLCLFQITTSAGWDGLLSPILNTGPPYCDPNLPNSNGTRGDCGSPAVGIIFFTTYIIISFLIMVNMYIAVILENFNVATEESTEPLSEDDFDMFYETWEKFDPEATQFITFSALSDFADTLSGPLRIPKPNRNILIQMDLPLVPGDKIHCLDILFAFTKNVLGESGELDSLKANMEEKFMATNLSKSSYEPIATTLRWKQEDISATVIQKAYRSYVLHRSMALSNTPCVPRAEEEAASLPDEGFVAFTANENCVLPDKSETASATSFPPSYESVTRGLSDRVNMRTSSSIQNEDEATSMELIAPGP
Format: cell-based
Summary of the method: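 Human NaV1.8 in HEK293 cells, automated whole-cell patch clamp at room temperature: 1 Hz train of ten 20 ms pulses to 10 mV from −90 mV, repolarization to −67 mV. First- and tenth-pulse peak currents gave resting and inactivated-state IC50 values via Hill fits.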

Structure (SMILES)	IC50
O=C1NC[C@@H](C(=O)NC(c2cnc(OCC(F)(F)F)s2)c2ccc(F)c(Cl)c2F)N1 (single isomer, unassigned) [Example 35A, (S)-N-((R or S)-(3-chloro-2,4-difluorophenyl)(2-(2,2,2-trifluoroethoxy)thiazol-5-yl)methyl)-2-oxoimidazolidine-4-carboxamide]	2.4 nM
O=C1NC[C@@H](C(=O)NC(c2cnc(OCC(F)(F)F)s2)c2ccc(F)c(Cl)c2F)N1 (single isomer, unassigned) [Example 35B, (S)-N-((R or S)-(3-chloro-2,4-difluorophenyl)(2-(2,2,2-trifluoroethoxy)thiazol-5-yl)methyl)-2-oxoimidazolidine-4-carboxamide]	64 nM
O=C1NC[C@@H](C(=O)NC(c2cnc(OC(F)F)s2)c2ccc(F)c(Cl)c2F)N1 (single isomer, unassigned) [Example 36A, (S)-N-((R or S)-(3-chloro-2,4-difluorophenyl)(2-(difluoromethoxy)thiazol-5-yl)methyl)-2-oxoimidazolidine-4-carboxamide]	12 nM
O=C1NC[C@@H](C(=O)NC(c2cnc(OC(F)F)s2)c2ccc(F)c(Cl)c2F)N1 (single isomer, unassigned) [Example 36B, (S)-N-((R or S)-(3-chloro-2,4-difluorophenyl)(2-(difluoromethoxy)thiazol-5-yl)methyl)-2-oxoimidazolidine-4-carboxamide]	186 nM
O=C1NC[C@@H](C(=O)NC(c2ccc(F)c(Cl)c2F)C2CC3(C2)CC(F)(F)C3)N1 (single isomer, unassigned) [Example 37, (S)-N-((R or S)-(3-chloro-2,4-difluorophenyl)(6,6-difluorospiro[3.3]heptan-2-yl)methyl)-2-oxoimidazolidine-4-carboxamide]	11 nM
O=C1NC[C@@H](C(=O)NC(c2cnc(C(F)(F)F)c(Cl)c2)c2ccc(F)c(Cl)c2F)N1 (single isomer, unassigned) [Example 38, (S)-N-((R or S)-(3-chloro-2,4-difluorophenyl)(5-chloro-6-(trifluoromethyl)pyridin-3-yl)methyl)-2-oxoimidazolidine-4-carboxamide]	1.1 nM
O=C1NC[C@@H](C(=O)NC(c2ccc(OC(F)(F)F)c(Cl)c2)c2ccc(OC(F)(F)F)cn2)N1 (single isomer, unassigned) [Example 39A, (S)—N—((R or S)-(3-chloro-4-(trifluoromethoxy)phenyl)(5-(trifluoromethoxy)pyridin-2-yl)methyl)-2-oxoimidazolidine-4-carboxamide]	1.3 nM
O=C1NC[C@@H](C(=O)NC(c2ccc(OC(F)(F)F)c(Cl)c2)c2ccc(OC(F)(F)F)cn2)N1 (single isomer, unassigned) [Example 39B, (S)—N—((R or S)-(3-chloro-4-(trifluoromethoxy)phenyl)(5-(trifluoromethoxy)pyridin-2-yl)methyl)-2-oxoimidazolidine-4-carboxamide]	2.5 nM
O=C1NC[C@@H](C(=O)NC(c2cnc(OC(F)F)c(F)c2)c2ccc(F)c(Cl)c2F)N1 (single isomer, unassigned) [Example 42, (S)-N-((R or S)-(3-chloro-2,4-difluorophenyl)(6-(difluoromethoxy)-5-fluoropyridin-3-yl)methyl)-2-oxoimidazolidine-4-carboxamide]	190 nM
O=C1NC[C@@H](C(=O)NC(c2ccc(C(F)F)nc2)c2ccc(F)c(Cl)c2F)N1 (single isomer, unassigned) [Example 43, (S)-N-((R or S)-(3-chloro-2,4-difluorophenyl)(6-(difluoromethyl)pyridin-3-yl)methyl)-2-oxoimidazolidine-4-carboxamide]	13 nM
O=C1NC[C@@H](C(=O)NC(c2cnc(C(F)(F)F)c(F)c2)c2ccc(F)c(Cl)c2F)N1 (single isomer, unassigned) [Example 44, (S)-N-((R or S)-(3-chloro-2,4-difluoro-phenyl)(5-fluoro-6-(trifluoromethyl)pyridin-3-yl)methyl)-2-oxoimidazolidine-4-carboxamide]	3.1 nM
O=C1NC[C@@H](C(=O)NC(c2cnc(C(F)(F)F)nc2)c2ccc(F)c(Cl)c2F)N1 (single isomer, unassigned) [Example 48, (S)-N-((R or S)-(3-chloro-2,4-difluorophenyl)(2-(trifluoromethyl)pyrimidin-5-yl)methyl)-2-oxoimidazolidine-4-carboxamide]	16 nM

Next, values leading:

IC50	Structure (SMILES)
21 nM	O=C1NC[C@@H](C(=O)NC(c2ccc(OC(F)(F)F)cc2)c2ccc(Cl)c(C3CC3)n2)N1 (single isomer, unassigned) [Example 40A, (S)-N-((R or S)-(5-chloro-6-cyclopropylpyridin-2-yl)(4-(trifluoromethoxy)phenyl)methyl)-2-oxoimidazolidine-4-carboxamide]
3.5 nM	O=C1NC[C@@H](C(=O)NC(c2ccc(OC(F)(F)F)cc2)c2ccc(Cl)c(C3CC3)n2)N1 (single isomer, unassigned) [Example 40B, (S)-N-((R or S)-(5-chloro-6-cyclopropylpyridin-2-yl)(4-(trifluoromethoxy)phenyl)methyl)-2-oxoimidazolidine-4-carboxamide]
1.7 nM	O=C1NC[C@@H](C(=O)NC(c2ccc(OC(F)(F)F)c(Cl)c2)c2cnn(C(F)(F)F)c2)N1 (single isomer, unassigned) [Example 41A, (S)—N—((R or S)-(3-chloro-4-(trifluoromethoxy)phenyl)(1-(trifluoromethyl)-1H-pyrazol-4-yl)-l3-methyl)-2-oxoimidazolidine-4-carboxamide]
16 nM	O=C1NC[C@@H](C(=O)NC(c2ccc(OC(F)(F)F)c(Cl)c2)c2cnn(C(F)(F)F)c2)N1 (single isomer, unassigned) [Example 41B, (S)—N—((R or S)-(3-chloro-4-(trifluoromethoxy)phenyl)(1-(trifluoromethyl)-1H-pyrazol-4-yl)-l3-methyl)-2-oxoimidazolidine-4-carboxamide]
10 nM	O=C1NC[C@@H](C(=O)NC(c2ccc(OC(F)(F)F)nc2)c2ccc(F)c(C(F)(F)F)n2)N1 (single isomer, unassigned) [Example 45A, (S)-N-((R or S)-(5-fluoro-6-(trifluoro-methyl)pyridin-2-yl)(6-(trifluoromethoxy)pyridin-3-yl)methyl)-2-oxoimidazolidine-4-carboxamide]
125 nM	O=C1NC[C@@H](C(=O)NC(c2ccc(OC(F)(F)F)nc2)c2ccc(F)c(C(F)(F)F)n2)N1 (single isomer, unassigned) [Example 45B, (S)-N-((R or S)-(5-fluoro-6-(trifluoro-methyl)pyridin-2-yl)(6-(trifluoromethoxy)pyridin-3-yl)methyl)-2-oxoimidazolidine-4-carboxamide]
27 nM and 6 nM	O=C1NC[C@@H](C(=O)NC(c2cnc(OCC(F)(F)F)c(F)c2)c2ccc(F)c(C(F)(F)F)n2)N1 (single isomer, unassigned) [Example 46B, (S)-N-((R or S)-(5-fluoro-6-(2,2,2-trifluoroethoxy)pyridin-3-yl)(5-fluoro-6-(trifluoromethyl)pyridin-2-yl)methyl)-2-oxoimidazolidine-4-carboxamide]
5.2 nM	O=C1NC[C@@H](C(=O)NC(c2ccc(OC(F)(F)F)c(Cl)c2)c2coc(C(F)(F)F)n2)N1 (single isomer, unassigned) [Example 47A, (S)-N-((R or S)-(3-chloro-4-(trifluoro-methoxy)phenyl)(2-(trifluoromethyl)oxazo 1-4-yl)methyl)-2-oxoimidazolidine-4-carboxamide]
3.9 nM	O=C1NC[C@@H](C(=O)NC(c2ccc(OC(F)(F)F)c(Cl)c2)c2coc(C(F)(F)F)n2)N1 (single isomer, unassigned) [Example 47B, (S)-N-((R or S)-(3-chloro-4-(trifluoro-methoxy)phenyl)(2-(trifluoromethyl)oxazo 1-4-yl)methyl)-2-oxoimidazolidine-4-carboxamide]
7.6 nM	O=C1NC[C@@H](C(=O)NC(c2ccc(OC(F)(F)F)c(Cl)c2)c2ccnc(C(F)(F)F)n2)N1 (single isomer, unassigned) [Example 49A, (S)-N-((R or S)-3-chloro-4-(trifluoro-methoxy)phenyl)(2-(trifluoromethyl)pyrimidin-4-yl)methyl)-2-oxoimidazolidine-4-carboxamide]
6.8 nM	O=C1NC[C@@H](C(=O)NC(c2ccc(OC(F)(F)F)c(Cl)c2)c2ccnc(C(F)(F)F)n2)N1 (single isomer, unassigned) [Example 49B, (S)-N-((R or S)-3-chloro-4-(trifluoro-methoxy)phenyl)(2-(trifluoromethyl)pyrimidin-4-yl)methyl)-2-oxoimidazolidine-4-carboxamide]
45 nM	O=C1NC[C@@H](C(=O)NC(c2ccc(OCC(F)(F)F)nn2)c2ccc(F)c(Cl)c2F)N1 (single isomer, unassigned) [Example 50A, (4S)—N—((R or S)-(3-chloro-2,4-difluorophenyl)(6-(2,2,2-trifluoroethoxy)-pyridazin-3-yl)methyl)-2-oxoimidazolidine-4-carboxamide]
206 nM	O=C1NC[C@@H](C(=O)NC(c2ccc(OCC(F)(F)F)nn2)c2ccc(F)c(Cl)c2F)N1 (single isomer, unassigned) [Example 50B, (4S)—N—((R or S)-(3-chloro-2,4-difluorophenyl)(6-(2,2,2-trifluoroethoxy)pyridazin-3-yl)methyl)-2-oxoimidazolidine-4-carboxamide]
9.2 nM	O=C1NC[C@@H](C(=O)NC(c2cnc(OCC(F)(F)F)cn2)c2ccc(F)c(Cl)c2F)N1 (single isomer, unassigned) [Example 51A, N—((R or S)-(3-chloro-2,4-difluorophenyl)(5-(2,2,2-trifluoroethoxy)pyrazin-2-yl)methyl)-2-oxoimidazolidine-4-carboxamide]
